{"source": "the supplement of paper PMC11208160"}
{"assay": "recombinant barcode read abundance after kanamycin selection (control-corrected) (log10(CPM+1)); higher = more efficient recombination; sequences stand for … in AGTGCAGAGAAAATCGGCCAGTTTTCTCTGCCTGCAGTCCGCATGCCGT…AGATTTATGCAGCGGACTGCCTTTCTCCCAAAGTGATAAACCGGACAGTATCATGGACCGGTTTTCCCGGTAATCCGTATTTGCAAGGTTGGTTTCACT; site = the 11-nt target", "how_it_was_run": "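Values are log10(CPM+1) from a pooled E. coli screen of targets paired with IS621 bridge RNA target-binding loops. Recombination efficiency here means counts per million of recombinant-junction barcodes, averaged and control-corrected. Plates were chloramphenicol/ampicillin LB agar for the control and chloramphenicol/ampicillin/kanamycin with 0.1 mM IPTG, two replicates each.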"}
{"sequence": "TGGTTACCTTGGGTTCTAACCTGTTGCGG (site TGGTTACCTCC)", "recombinant barcode read abundance (log10)": 1.49}
{"sequence": "TAGAGAGCTTGGGTTCTAACCTGTTGCGG (site TACAGAGCTCC)", "recombinant barcode read abundance (log10)": 0.202}
{"sequence": "TTACGCGCTTGGGTTCTAACCTGTTGCGG (site TTACGGGCTCC)", "recombinant barcode read abundance (log10)": 0.0728}
{"sequence": "GTCTCCTCTTGGGTTCTAACCTGTTGCCT (site GTCACCTCTAG)", "recombinant barcode read abundance (log10)": 0.0265}
{"sequence": "CCTAAAACTTGGGTTCTAACCTGTTGCCT (site CCTAAAACTAG)", "recombinant barcode read abundance (log10)": 0.0998}
{"sequence": "ACTAGGACTTGGGTTCTAACCTGTTGCGG (site ACTAGGACTGC)", "recombinant barcode read abundance (log10)": 0.444}
{"sequence": "ACAGACGCTTGGGTTCTAACCTGTTGCCT (site ACAGACGCTAG)", "recombinant barcode read abundance (log10)": 0.721}
{"sequence": "GCCCTGCCTTGGGTTCTAACCTGTTGCCT (site GCCCTGCCTAG)", "recombinant barcode read abundance (log10)": 1.43}
{"sequence": "TGCGCCACTTGGGTTCTAACCTGTTGCCT (site TGCGCGACTAG)", "recombinant barcode read abundance (log10)": 0.0341}
{"sequence": "CCGCCCGCTTGGGTTCTAACCTGTTGCCT (site CCGCCAGCTAG)", "recombinant barcode read abundance (log10)": 0.00972}
{"sequence": "CCGCCCGCTTGGGTTCTAACCTGTTGCCT (site CCGCCCGCTAG)", "recombinant barcode read abundance (log10)": 0.473}
{"sequence": "TATCGGCCTTGGGTTCTAACCTGTTGCCT (site TATCGGCCTAG)", "recombinant barcode read abundance (log10)": 0.0996}
{"sequence": "CAGATCCCTTGGGTTCTAACCTGTTGCCT (site CGGATCCCTAG)", "recombinant barcode read abundance (log10)": 0.0247}
{"sequence": "GATATAGCTTGGGTTCTAACCTGTTGCGG (site GTGATAGCTCC)", "recombinant barcode read abundance (log10)": 0.0376}
{"sequence": "AACCCACCTTGGGTTCTAACCTGTTGCCT (site GACCCACCTAG)", "recombinant barcode read abundance (log10)": 0.0506}
{"sequence": "GGCACTTCTTGGGTTCTAACCTGTTGCCT (site GGCACTTCTAG)", "recombinant barcode read abundance (log10)": 0.188}
{"sequence": "GACGATCCTTGGGTTCTAACCTGTTGCCT (site GACGATCCTAG)", "recombinant barcode read abundance (log10)": 0.66}
{"sequence": "GAACCTACTTGGGTTCTAACCTGTTGCGA (site GAACCTACTCC)", "recombinant barcode read abundance (log10)": 0.0825}
{"sequence": "ACCAGTACTTGGGTTCTAACCTGTTGCCT (site ACCTGTACTAG)", "recombinant barcode read abundance (log10)": 0.664}
{"sequence": "TTAGACTCTTGGGTTCTAACCTGTTGCCA (site TTAGACTCTTA)", "recombinant barcode read abundance (log10)": 0.0659}
{"sequence": "GTGAGGTCTTGGGTTCTAACCTGTTGCGT (site GTGAGGTCTAC)", "recombinant barcode read abundance (log10)": 2.08}
{"sequence": "GGACACTCTTGGGTTCTAACCTGTTGCCT (site GGACACTCTTA)", "recombinant barcode read abundance (log10)": 1.09}
{"sequence": "AACTCATCTTGGGTTCTAACCTGTTGCCT (site AACTCATCTAG)", "recombinant barcode read abundance (log10)": 0.378}
{"sequence": "AGTTCGCCTTGGGTTCTAACCTGTTGCTA (site AGTTCGCCTTA)", "recombinant barcode read abundance (log10)": 0.012}
{"sequence": "CGGGCCTCTTGGGTTCTAACCTGTTGCTC (site CGGGCCTCTTA)", "recombinant barcode read abundance (log10)": 0.0944}
{"sequence": "TCGTGCCCTTGGGTTCTAACCTGTTGCGT (site TCGTGCCCTAC)", "recombinant barcode read abundance (log10)": 0.14}
{"sequence": "GGCTCTTCTTGGGTTCTAACCTGTTGCCT (site GGCTCTTCTAG)", "recombinant barcode read abundance (log10)": 0.332}
{"sequence": "AAGCGAACTTGGGTTCTAACCTGTTGCCT (site AAGCGAACTAG)", "recombinant barcode read abundance (log10)": 2.07}
{"sequence": "AGGGGCTCTTGGGTTCTAACCTGTTGCTG (site AGGGGCTCTCA)", "recombinant barcode read abundance (log10)": 3.01}
{"sequence": "TAGGCTACTTGGGTTCTAACCTGTTGCCA (site TAGGCTACTTG)", "recombinant barcode read abundance (log10)": 0.129}
{"sequence": "GTCACCGCTTGGGTTCTAACCTGTTGCCT (site GTAACCGCTAG)", "recombinant barcode read abundance (log10)": 0.409}
{"sequence": "TGATCCACTTGGGTTCTAACCTGTTGCCT (site GGATCCACTAG)", "recombinant barcode read abundance (log10)": 0.0751}
{"sequence": "GAATCGACTTGGGTTCTAACCTGTTGCCT (site AGGGTACCTCT)", "recombinant barcode read abundance (log10)": 0.192}
{"sequence": "TATTCTACTTGGGTTCTAACCTGTTGCGG (site TATTCTACTCC)", "recombinant barcode read abundance (log10)": 0.223}
{"sequence": "CGGCCTACTTGGGTTCTAACCTGTTGCTT (site CGGCTTCCTAA)", "recombinant barcode read abundance (log10)": 0.137}
{"sequence": "CGTACCTCTTGGGTTCTAACCTGTTGCTA (site CGTACCTCTAA)", "recombinant barcode read abundance (log10)": 0.124}
{"sequence": "TATGTAGCTTGGGTTCTAACCTGTTGCCA (site TATGTAGCTTG)", "recombinant barcode read abundance (log10)": 1.05}
{"sequence": "GGCACTTCTTGGGTTCTAACCTGTTGCCT (site GGCTCTTCTAG)", "recombinant barcode read abundance (log10)": 0.136}
{"sequence": "CGTAAATCTTGGGTTCTAACCTGTTGCCT (site CGAAAATCTAG)", "recombinant barcode read abundance (log10)": 0.0185}
{"sequence": "TATTACCCTTGGGTTCTAACCTGTTGCCT (site TATTAGCCTAG)", "recombinant barcode read abundance (log10)": 0.0773}
{"sequence": "GGACCTACTTGGGTTCTAACCTGTTGCCA (site GGACCTACTTG)", "recombinant barcode read abundance (log10)": 0.483}
{"sequence": "AATAGGCCTTGGGTTCTAACCTGTTGCGT (site AATGGGCCTAC)", "recombinant barcode read abundance (log10)": 0.23}
{"sequence": "ACTTTGTCTTGGGTTCTAACCTGTTGCCT (site ACCTTGTCTAG)", "recombinant barcode read abundance (log10)": 0.085}
{"sequence": "TAGTTGCCTTGGGTTCTAACCTGTTGCCT (site TAGTTGCCTAG)", "recombinant barcode read abundance (log10)": 0.565}
{"sequence": "TCCCATCCTTGGGTTCTAACCTGTTGCCT (site TCCCATGCTAG)", "recombinant barcode read abundance (log10)": 0.0237}
{"sequence": "GCCGCGCCTTGGGTTCTAACCTGTTGCAG (site GCCCCGCCTCT)", "recombinant barcode read abundance (log10)": 0.271}
{"sequence": "GAGGGTCCTTGGGTTCTAACCTGTTGCTT (site GAGGGTCCTAA)", "recombinant barcode read abundance (log10)": 2}
{"sequence": "ACCCAGCCTTGGGTTCTAACCTGTTGCGT (site ACCCAGCCTAG)", "recombinant barcode read abundance (log10)": 0.316}
{"sequence": "GAGGCTCCTTGGGTTCTAACCTGTTGCGT (site GAGGCTCCTAC)", "recombinant barcode read abundance (log10)": 2.97}
{"sequence": "CTTTCCTCTTGGGTTCTAACCTGTTGCCT (site CTTTCCTCTAG)", "recombinant barcode read abundance (log10)": 0.831}
{"sequence": "GGGGACTCTTGGGTTCTAACCTGTTGCAC (site GGGGAATCTAT)", "recombinant barcode read abundance (log10)": 0.0994}
{"sequence": "CGTACTACTTGGGTTCTAACCTGTTGCAC (site GGTACTACTAT)", "recombinant barcode read abundance (log10)": 0.128}
{"sequence": "ACAAAGCCTTGGGTTCTAACCTGTTGCCT (site ACAAAGCCTAG)", "recombinant barcode read abundance (log10)": 0.85}
{"sequence": "GACCAGCCTTGGGTTCTAACCTGTTGCAT (site GACCAGCCTAG)", "recombinant barcode read abundance (log10)": 0.466}
{"sequence": "AATAGGCCTTGGGTTCTAACCTGTTGCGT (site AATCGGCCTAC)", "recombinant barcode read abundance (log10)": 0.163}
{"sequence": "TGCTACCCTTGGGTTCTAACCTGTTGCCT (site TACTACCCTAG)", "recombinant barcode read abundance (log10)": 0.81}
{"sequence": "TAGTTAACTTGGGTTCTAACCTGTTGCCA (site TAGTTAACTTG)", "recombinant barcode read abundance (log10)": 0.569}
{"sequence": "TGTGAGTCTTGGGTTCTAACCTGTTGCCT (site TGTGAGTCTAG)", "recombinant barcode read abundance (log10)": 1.1}
{"sequence": "GACACAACTTGGGTTCTAACCTGTTGCGG (site GACACAACTCC)", "recombinant barcode read abundance (log10)": 1.14}
{"sequence": "ATAAATCCTTGGGTTCTAACCTGTTGCCT (site TTAAATCCTAG)", "recombinant barcode read abundance (log10)": 0.0804}
{"sequence": "CCTTGTTCTTGGGTTCTAACCTGTTGCCT (site GCTTGTTCTAG)", "recombinant barcode read abundance (log10)": 0.14}
{"sequence": "CCTACATCTTGGGTTCTAACCTGTTGCAT (site CCTACATCTTA)", "recombinant barcode read abundance (log10)": 0.0552}
{"sequence": "CAGCCGTCTTGGGTTCTAACCTGTTGCGG (site CAATCGTCTCC)", "recombinant barcode read abundance (log10)": 0.0473}
{"sequence": "ACTTTGTCTTGGGTTCTAACCTGTTGCCT (site ACATTGTCTAG)", "recombinant barcode read abundance (log10)": 0.0289}
{"sequence": "GGGCCTACTTGGGTTCTAACCTGTTGCTG (site GGGCCTACTCA)", "recombinant barcode read abundance (log10)": 2.06}
{"sequence": "GTCGTCCCTTGGGTTCTAACCTGTTGCCT (site GTCGTCTCTAG)", "recombinant barcode read abundance (log10)": 0.0914}
{"sequence": "ACAGTGACTTGGGTTCTAACCTGTTGCCT (site ACAATGACTAG)", "recombinant barcode read abundance (log10)": 1.23}
{"sequence": "AGGAACCCTTGGGTTCTAACCTGTTGCTG (site AGGAACCCTCA)", "recombinant barcode read abundance (log10)": 1.78}
{"sequence": "AGTATAACTTGGGTTCTAACCTGTTGCTG (site AGTATAACTCA)", "recombinant barcode read abundance (log10)": 0.24}
{"sequence": "GATACGGCTTGGGTTCTAACCTGTTGCCT (site GATACGGCTAG)", "recombinant barcode read abundance (log10)": 0.149}
{"sequence": "TCTCCTCCTTGGGTTCTAACCTGTTGCAT (site TCTCCTCCTAT)", "recombinant barcode read abundance (log10)": 0.679}
{"sequence": "AGGAGAACTTGGGTTCTAACCTGTTGCCT (site AGCATAACTAG)", "recombinant barcode read abundance (log10)": 0.447}
{"sequence": "CAGTATCCTTGGGTTCTAACCTGTTGCCT (site CAGTATCCTAG)", "recombinant barcode read abundance (log10)": 0.945}
{"sequence": "TCTCGGTCTTGGGTTCTAACCTGTTGCCT (site TCTCGGTCTAG)", "recombinant barcode read abundance (log10)": 0.277}
{"sequence": "TAGCACTCTTGGGTTCTAACCTGTTGCAG (site TAGCACTCTCT)", "recombinant barcode read abundance (log10)": 2.08}
{"sequence": "GGCTCTTCTTGGGTTCTAACCTGTTGCCT (site GGCACTTCTAG)", "recombinant barcode read abundance (log10)": 0.221}
{"sequence": "GCCCGTGCTTGGGTTCTAACCTGTTGCCT (site GCACGTGCTAG)", "recombinant barcode read abundance (log10)": 0.377}
{"sequence": "CGTCAACCTTGGGTTCTAACCTGTTGCCT (site CGTCATCCTAG)", "recombinant barcode read abundance (log10)": 0.115}
{"sequence": "TAGCACTCTTGGGTTCTAACCTGTTGCAG (site AAGCACCCTCT)", "recombinant barcode read abundance (log10)": 0.0429}
{"sequence": "GGAGACGCTTGGGTTCTAACCTGTTGCCT (site GGAGAAGCTAG)", "recombinant barcode read abundance (log10)": 0.344}
{"sequence": "CTACGCTCTTGGGTTCTAACCTGTTGCAC (site CTACGTTCTGT)", "recombinant barcode read abundance (log10)": 0.0706}
{"sequence": "TAGTACCCTTGGGTTCTAACCTGTTGCAT (site TAGTACCCTAT)", "recombinant barcode read abundance (log10)": 0.43}
{"sequence": "TTACCTACTTGGGTTCTAACCTGTTGCCT (site TTACCTACTAG)", "recombinant barcode read abundance (log10)": 0.802}
{"sequence": "TAGTAGTCTTGGGTTCTAACCTGTTGCCT (site TAGTAGTCTAA)", "recombinant barcode read abundance (log10)": 0.0538}
{"sequence": "GAGCTGACTTGGGTTCTAACCTGTTGCCT (site GAGCCGACTAG)", "recombinant barcode read abundance (log10)": 0.488}
{"sequence": "CGGCCACCTTGGGTTCTAACCTGTTGCCT (site TGGCCACCTAG)", "recombinant barcode read abundance (log10)": 0.0718}
